Assay: Double-blind, placebo controlled six-month study of nutritional status in pregnant and lactating women (Example 6)
Format: in vivo, human
Settings: co-administration of docusate sodium with supplements
Method: A study is undertaken to evaluate the effectiveness of the compositions of the present invention in the treatment of patients. The objective of the study is to determine whether oral intake of the compositions results in an improvement of the nutritional status of patients with regard to the specific vitamins and minerals contained in the administered compositions.
A double-blind, placebo controlled study is conducted over a six-month period. A total of 120 subjects (60 pregnant women entering the second trimester of pregnancy and 60 lactating women), aged 20-35 years, are chosen for the study. An initial assessment of the nutritional status of each woman is conducted. Vitamin A and vitamin B6 are measured using high performance liquid chromatography. […] Vitamin B2 levels are determined by assessment of erythrocyte glutathione reductase activity. Vitamin B3 levels are assessed by measuring urinary excretion of N′-methylnicotinamide and its pyridone. Vitamin B9 is measured by radioimmunoassay (RIA), specifically. […] Vitamin B12 is measured by RIA using human intrinsic factor as a binder and also by measuring serum levels of vitamin B12. Vitamin C levels are measured by spectrophotometric and colorimetric methods and also by measuring serum levels of Vitamin C. Vitamin D is measured using an extraction double-antibody RIA (Dia Sorin, Inc., Stillwater, Minn.). […] Iodine levels are measured by HPLC. […]

CCCCC(CC)COC(=O)CC(C(=O)OCC(CC)CCCC)S(=O)(=O)[O-].[Na+] (stereo not shown) [docusate sodium]
constipation that can result from iron supplementation (frequency of normal bowel movements before and after receiving supplements): mitigates constipation
